In PMC3489957 (Bioorganic & medicinal chemistry, 2012):

How the values were obtained:
[1] = in vitro; details: human, lymphocytic CEM cells
[2] = Cytotoxicity in Vero cells; format: cell-based; details: African green monkey, Vero kidney cells
[3] = Cytotoxicity in uninfected PHA-stimulated human PBM cells; format: cell-based; details: uninfected phytohemagglutinin-stimulated PBM cells

SMILES | IC50 [1] [µM] | IC50 [2] [µM] | IC50 [3] [µM]
CC(C)(C)OC(=O)N1[C@H](CO)CC(F)(F)[C@@H]1n1cnc2c(Cl)ncnc21 [Analogue 26, 9-[(2R,5S)-N-tert-Butyloxycarbonyl-3,3-difluoro-5-(hydroxymethyl)pyrrolidin-2-yl]-6-chloropurine] | – | > 100 | –
CC(C)(C)OC(=O)N1[C@H](CO)CC(F)(F)[C@H]1n1cnc2c(Cl)ncnc21 [Analogue 27, 9-[(2S,5S)-N-tert-Butyloxycarbonyl-3,3-difluoro-5-(hydroxymethyl)pyrrolidin-2-yl]-6-chloropurine] | – | > 100 | –
CC(C)(C)OC(=O)N1[C@H](CO)CC(F)(F)[C@@H]1n1cnc2ncnc(Cl)c21 [Analogue 28, 7-[(2R,5S)-N-tert-Butyloxycarbonyl-3,3-difluoro-5-(hydroxymethyl)pyrrolidin-2-yl]-6-chloropurine] | – | > 100 | –
CC(C)(C)OC(=O)N1[C@H](CO)CC(F)(F)[C@H]1n1cnc2ncnc(Cl)c21 [Analogue 29, 7-[(2S,5S)-N-tert-Butyloxycarbonyl-3,3-difluoro-5-(hydroxymethyl)pyrrolidin-2-yl]-6-chloropurine] | – | > 100 | –
CC(C)(C)OC(=O)N1[C@H](CO)CC(F)(F)[C@@H]1n1cnc2c(N)ncnc21 [Analogue 30, 9-[(2R,5S)-N-tert-Butyloxycarbonyl-3,3-difluoro-5-(hydroxymethyl)pyrrolidin-2-yl]-adenine] | > 100 | > 100 | > 100
CC(C)(C)OC(=O)N1[C@H](CO)CC(F)(F)[C@H]1n1cnc2c(N)ncnc21 [Analogue 31, 9-[(2S,5S)-N-tert-Butyloxycarbonyl-3,3-difluoro-5-(hydroxymethyl)pyrrolidin-2-yl]-adenine] | > 100 | > 100 | > 100
CC(C)(C)OC(=O)N1[C@H](CO)CC(F)(F)[C@@H]1n1cnc2ncnc(N)c21 [Analogue 32, 7-[(2R,5S)-N-tert-Butyloxycarbonyl-3,3-difluoro-5-(hydroxymethyl)pyrrolidin-2-yl]-adenine] | > 100 | > 100 | > 100
CC(C)(C)OC(=O)N1[C@H](CO)CC(F)(F)[C@H]1n1cnc2ncnc(N)c21 [Analogue 33, 7-[(2S,5S)-N-tert-Butyloxycarbonyl-3,3-difluoro-5-(hydroxymethyl)pyrrolidin-2-yl]-adenine] | > 100 | > 100 | > 100

Now from value to molecule, other results behind:

IC50 [1] [µM] | SMILES | IC50 [2] [µM] | IC50 [3] [µM]
> 100 | CC(C)(C)OC(=O)N1[C@H](CO)CC(F)(F)[C@H]1n1ccc(=O)[nH]c1=O [Analogue 18a, 1-[(2S,5S)-N-tert-Butyloxycarbonyl-3,3-difluoro-5-(hydroxymethyl)pyrrolidin-2-yl]-uracil] | > 100 | –
> 100 | CC(C)(C)OC(=O)N1[C@H](CO)CC(F)(F)[C@H]1n1cc(F)c(=O)[nH]c1=O [Analogue 18d, 1-[(2S,5S)-N-tert-Butyloxycarbonyl-3,3-difluoro-5-(hydroxymethyl)pyrrolidin-2-yl]-5-fluorouracil] | > 100 | –
> 100 | CC(C)(C)OC(=O)N1[C@H](CO)CC(F)(F)[C@@H]1n1ccc(=O)[nH]c1=O [Analogue 19a, 1-[(2R,5S)-N-tert-butyloxycarbonyl-3,3-difluoro-5-(hydroxymethyl)pyrrolidin-2-yl]-uracil] | – | –
> 100 | CC(C)(C)OC(=O)N1[C@H](CO)CC(F)(F)[C@@H]1n1cc(F)c(=O)[nH]c1=O [Analogue 19d, 1-[(2R,5S)-N-tert-Butyloxycarbonyl-3,3-difluoro-5-(hydroxymethyl)pyrrolidin-2-yl]-5-fluorouracil] | > 100 | –
